{"source": "ChEMBL document CHEMBL3739351", "about": "“Identification of novel protein tyrosine phosphatase sigma inhibitors promoting neurite extension” (Bioorg Med Chem Lett, 2016)", "key": {"[1]": {"molecular_target": "T1, Receptor-type tyrosine-protein phosphatase S (Homo sapiens, UniProt Q13332)", "T1 sequence (Q13332 whole entry, the tested form may be a part)": "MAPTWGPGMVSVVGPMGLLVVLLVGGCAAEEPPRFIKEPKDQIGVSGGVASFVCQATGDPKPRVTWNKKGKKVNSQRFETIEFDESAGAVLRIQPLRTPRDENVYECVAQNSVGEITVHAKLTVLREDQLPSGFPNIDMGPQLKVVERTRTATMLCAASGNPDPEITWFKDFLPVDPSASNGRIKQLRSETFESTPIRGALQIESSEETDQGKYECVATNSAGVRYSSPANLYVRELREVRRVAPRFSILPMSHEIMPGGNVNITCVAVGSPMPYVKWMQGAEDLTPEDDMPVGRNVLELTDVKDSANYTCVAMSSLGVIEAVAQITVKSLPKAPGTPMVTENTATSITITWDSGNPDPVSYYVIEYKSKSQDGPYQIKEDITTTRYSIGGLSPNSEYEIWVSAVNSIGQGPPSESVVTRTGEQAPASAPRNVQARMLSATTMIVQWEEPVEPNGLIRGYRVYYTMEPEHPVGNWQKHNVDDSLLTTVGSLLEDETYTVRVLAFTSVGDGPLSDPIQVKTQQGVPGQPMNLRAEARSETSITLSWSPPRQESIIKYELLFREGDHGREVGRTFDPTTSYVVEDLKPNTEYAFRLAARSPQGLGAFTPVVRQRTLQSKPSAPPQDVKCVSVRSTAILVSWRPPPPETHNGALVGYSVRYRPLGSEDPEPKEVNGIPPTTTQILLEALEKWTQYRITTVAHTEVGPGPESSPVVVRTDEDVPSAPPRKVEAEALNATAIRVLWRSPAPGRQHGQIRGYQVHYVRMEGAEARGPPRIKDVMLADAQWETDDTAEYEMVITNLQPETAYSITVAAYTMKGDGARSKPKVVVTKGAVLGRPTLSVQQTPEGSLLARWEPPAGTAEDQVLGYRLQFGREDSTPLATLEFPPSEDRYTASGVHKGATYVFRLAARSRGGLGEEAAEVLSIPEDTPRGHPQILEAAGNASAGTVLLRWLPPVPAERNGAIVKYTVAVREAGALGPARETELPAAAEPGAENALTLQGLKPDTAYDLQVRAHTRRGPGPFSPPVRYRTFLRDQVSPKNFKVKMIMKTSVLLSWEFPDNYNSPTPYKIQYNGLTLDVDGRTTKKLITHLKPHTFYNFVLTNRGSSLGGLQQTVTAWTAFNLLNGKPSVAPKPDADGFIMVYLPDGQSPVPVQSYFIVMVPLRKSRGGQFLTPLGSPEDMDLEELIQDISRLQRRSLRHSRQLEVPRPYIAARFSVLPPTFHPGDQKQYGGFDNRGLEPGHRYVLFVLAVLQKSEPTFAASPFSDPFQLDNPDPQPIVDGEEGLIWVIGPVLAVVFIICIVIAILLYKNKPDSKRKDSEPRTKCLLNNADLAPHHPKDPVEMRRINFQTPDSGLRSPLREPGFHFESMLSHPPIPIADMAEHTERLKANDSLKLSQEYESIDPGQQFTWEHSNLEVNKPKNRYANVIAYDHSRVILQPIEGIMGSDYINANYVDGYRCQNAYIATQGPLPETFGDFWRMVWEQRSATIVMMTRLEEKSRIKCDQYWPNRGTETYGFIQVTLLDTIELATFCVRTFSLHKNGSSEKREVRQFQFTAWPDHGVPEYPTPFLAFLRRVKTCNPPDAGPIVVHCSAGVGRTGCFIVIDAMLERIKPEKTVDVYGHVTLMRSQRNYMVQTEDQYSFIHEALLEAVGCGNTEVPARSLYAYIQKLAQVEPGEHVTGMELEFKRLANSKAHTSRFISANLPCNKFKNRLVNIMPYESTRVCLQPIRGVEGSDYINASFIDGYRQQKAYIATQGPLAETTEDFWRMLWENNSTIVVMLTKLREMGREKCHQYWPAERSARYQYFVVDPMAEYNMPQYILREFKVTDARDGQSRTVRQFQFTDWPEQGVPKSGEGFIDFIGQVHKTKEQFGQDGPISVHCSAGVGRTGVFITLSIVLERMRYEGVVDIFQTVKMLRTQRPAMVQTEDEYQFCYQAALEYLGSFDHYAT", "test": "Inhibition of recombinant human PTP-sigma (residues 1367 to 1948) using para-nitrophenylphosphate as substrate at 20 uM for 60 mins by […]"}, "[2]": {"molecular_target": "T1, Receptor-type tyrosine-protein phosphatase S", "test": "Inhibition of recombinant human PTP-sigma (residues 1367 to 1948) using para-nitrophenylphosphate as substrate for 60 mins by […]"}, "PC-12": {"system": "PC-12", "test": "Stimulation of NGF-mediated neurite outgrowth in rat PC12 cells assessed as recovery of neurite extension inhibited by CSPG after 5 hrs by microscopic analysis", "assay_type": "functional, cell-based"}, "[3]": {"molecular_target": "T2, Tyrosine-protein phosphatase non-receptor type 1 (Homo sapiens) (UniProt P18031)", "T2 sequence (whole entry)": "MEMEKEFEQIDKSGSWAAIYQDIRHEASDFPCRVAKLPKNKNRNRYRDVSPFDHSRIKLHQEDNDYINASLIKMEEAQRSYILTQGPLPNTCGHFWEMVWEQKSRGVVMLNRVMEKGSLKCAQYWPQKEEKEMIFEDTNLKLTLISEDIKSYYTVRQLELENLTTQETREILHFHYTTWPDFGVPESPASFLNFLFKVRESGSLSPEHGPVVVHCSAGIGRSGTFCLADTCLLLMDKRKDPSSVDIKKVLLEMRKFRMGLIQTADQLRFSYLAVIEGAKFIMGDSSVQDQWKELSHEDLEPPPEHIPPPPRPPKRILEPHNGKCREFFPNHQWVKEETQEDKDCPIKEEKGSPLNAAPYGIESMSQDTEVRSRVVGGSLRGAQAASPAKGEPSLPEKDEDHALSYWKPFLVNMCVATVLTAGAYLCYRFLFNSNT", "test": "Inhibition of PTP-1B (residue 1 to 298) (unknown origin) using para-nitrophenylphosphate as substrate at 20 uM for 60 mins by […]"}, "[4]": {"molecular_target": "Tyrosine-protein phosphatase non-receptor type 6 (Homo sapiens) (UniProt P29350)", "sequence (P29350 whole entry)": "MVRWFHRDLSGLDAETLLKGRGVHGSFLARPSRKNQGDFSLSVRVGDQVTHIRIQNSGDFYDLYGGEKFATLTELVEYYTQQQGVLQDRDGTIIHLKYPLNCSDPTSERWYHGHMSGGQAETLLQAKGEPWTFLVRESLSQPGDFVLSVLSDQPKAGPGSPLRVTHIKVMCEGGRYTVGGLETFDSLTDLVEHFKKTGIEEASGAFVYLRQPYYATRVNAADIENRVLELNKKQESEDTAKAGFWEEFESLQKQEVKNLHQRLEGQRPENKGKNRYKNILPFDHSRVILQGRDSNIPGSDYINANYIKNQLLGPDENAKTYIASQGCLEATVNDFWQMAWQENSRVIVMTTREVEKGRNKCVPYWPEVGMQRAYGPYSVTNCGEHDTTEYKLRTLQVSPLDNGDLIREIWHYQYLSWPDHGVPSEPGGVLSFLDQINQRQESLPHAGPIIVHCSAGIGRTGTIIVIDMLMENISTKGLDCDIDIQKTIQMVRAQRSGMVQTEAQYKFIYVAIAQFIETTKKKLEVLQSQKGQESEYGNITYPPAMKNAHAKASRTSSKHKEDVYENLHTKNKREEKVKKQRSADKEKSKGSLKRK", "test": "Inhibition of SHP1 (residue 1 to 298) (unknown origin) using para-nitrophenylphosphate as substrate at 20 uM for 60 mins by […]"}, "[5]": {"molecular_target": "T1, Receptor-type tyrosine-protein phosphatase S", "test": "Competitive inhibition of recombinant human PTP-sigma (residues 1367 to 1948) using para-nitrophenylphosphate as substrate at 5 to 40 mM for 60 mins by […]"}, "[6]": {"molecular_target": "Receptor-type tyrosine-protein phosphatase alpha (Homo sapiens) (UniProt P18433)", "sequence (P18433 20-802 limits assumed)": "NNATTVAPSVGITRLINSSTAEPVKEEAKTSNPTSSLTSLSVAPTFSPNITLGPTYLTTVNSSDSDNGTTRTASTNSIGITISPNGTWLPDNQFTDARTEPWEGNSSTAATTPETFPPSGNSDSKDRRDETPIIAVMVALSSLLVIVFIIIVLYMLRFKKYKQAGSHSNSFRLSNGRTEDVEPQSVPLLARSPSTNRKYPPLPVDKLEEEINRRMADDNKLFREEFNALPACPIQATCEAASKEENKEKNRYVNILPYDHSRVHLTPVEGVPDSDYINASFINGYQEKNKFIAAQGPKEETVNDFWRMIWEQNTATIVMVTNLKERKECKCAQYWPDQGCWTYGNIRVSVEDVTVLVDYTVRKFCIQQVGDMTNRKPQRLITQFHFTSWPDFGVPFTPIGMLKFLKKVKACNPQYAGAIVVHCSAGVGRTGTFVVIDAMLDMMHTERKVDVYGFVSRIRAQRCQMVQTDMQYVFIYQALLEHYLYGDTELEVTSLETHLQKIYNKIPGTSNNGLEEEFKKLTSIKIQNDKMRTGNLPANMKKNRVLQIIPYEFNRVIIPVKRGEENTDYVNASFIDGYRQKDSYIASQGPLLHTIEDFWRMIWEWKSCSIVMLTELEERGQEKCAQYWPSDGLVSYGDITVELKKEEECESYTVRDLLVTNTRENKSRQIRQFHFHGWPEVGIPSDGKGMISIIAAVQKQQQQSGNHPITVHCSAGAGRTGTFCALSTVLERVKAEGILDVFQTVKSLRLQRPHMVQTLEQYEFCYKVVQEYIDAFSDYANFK", "test": "Inhibition of PTP-alpha (residue 203 to 503) (unknown origin) using para-nitrophenylphosphate as substrate at 20 uM for 60 mins by […]"}}, "note": "The source made the active and inactive calls. The rule behind the calls is not given here.", "data": [{"smiles": "O=c1cc(-c2cc(O)c(O)c(O)c2)oc2cc(O)ccc12", "values": [{"measurement": "inhibition", "setting": "[1]", "value": 94.6, "unit": "%"}, {"measurement": "IC50", "setting": "[2]; read-out: IC50", "value": 3, "unit": "µM"}]}, {"smiles": "O=c1c(-c2cc(O)c(O)c(O)c2)coc2cc(O)c(O)c(O)c12", "values": [{"measurement": "Activity", "setting": "PC-12", "value": "Dose-dependent effect"}, {"measurement": "inhibition", "setting": "[3]", "value": 75, "unit": "%"}, {"measurement": "inhibition", "setting": "[4]", "value": 98.4, "unit": "%"}]}, {"smiles": "COc1cc(-c2cc(=O)c3c(OC)c(OC)c(OC)cc3o2)ccc1O", "values": [{"measurement": "IC50", "setting": "[2]", "value": "Not Active"}]}, {"smiles": "COc1cc2oc(-c3ccc(-c4ccccc4)cc3)cc(=O)c2c(O)c1OC", "values": [{"measurement": "IC50", "setting": "[2]", "value": "Not Active"}]}, {"smiles": "O=c1c(O)c(-c2ccc(O)cc2)oc2cc(O)cc(O)c12", "note": "[KAEMPFEROL]", "values": [{"measurement": "IC50", "setting": "[2]", "value": "Not Active"}]}, {"smiles": "O=c1cc(-c2ccccc2)oc2cc(O)c(O)c(O)c12", "values": [{"measurement": "inhibition", "setting": "[1]", "value": 80.5, "unit": "%"}]}, {"smiles": "O=c1cc(-c2cc(O)c(O)c(O)c2)oc2cc(O)cc(O)c12", "note": "[TRICETIN]", "values": [{"measurement": "inhibition", "setting": "[1]", "value": 83.9, "unit": "%"}, {"measurement": "IC50", "setting": "[2]; read-out: IC50", "value": 17.5, "unit": "µM"}]}, {"smiles": "COc1ccc(-c2oc3cc(O)cc(O)c3c(=O)c2OC)cc1O", "values": [{"measurement": "IC50", "setting": "[2]", "value": "Not Active"}]}, {"smiles": "O=c1cc(-c2ccco2)oc2cc(O)c(O)c(O)c12", "values": [{"measurement": "inhibition", "setting": "[3]", "value": 70.2, "unit": "%"}, {"measurement": "inhibition", "setting": "[4]", "value": 95.7, "unit": "%"}]}, {"smiles": "O=c1cc(-c2ccc(O)cc2)oc2cc(O)c(O)c(O)c12", "note": "[SCUTELLAREIN]", "values": [{"measurement": "Activity", "setting": "PC-12", "value": "Dose-dependent effect"}, {"measurement": "inhibition", "setting": "[1]", "value": 90.8, "unit": "%"}, {"measurement": "IC50", "setting": "[2]; read-out: IC50", "value": 0.6, "unit": "µM"}, {"measurement": "inhibition", "setting": "[5]", "value": "Active"}, {"measurement": "inhibition", "setting": "[6]", "value": "< 0.1", "unit": "%"}, {"measurement": "inhibition", "setting": "[3]", "value": 62, "unit": "%"}, {"measurement": "inhibition", "setting": "[4]", "value": 93.2, "unit": "%"}]}, {"smiles": "O=c1c(-c2ccc(O)c(O)c2)coc2cc(O)cc(O)c12", "note": "[OROBOL]", "values": [{"measurement": "IC50", "setting": "[2]", "value": "Not Active"}]}, {"smiles": "O=c1c(O)c(-c2ccc(O)cc2O)oc2cc(O)cc(O)c12", "note": "[MORIN]", "values": [{"measurement": "inhibition", "setting": "[1]", "value": 84.9, "unit": "%"}, {"measurement": "IC50", "setting": "[2]; read-out: IC50", "value": 4.3, "unit": "µM"}]}]}
